# Test system: D2/3R
# Test: Kinetic analysis of PET data (1TCM, 2TCM, Logan, SRTM);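 on 2TCM BPND change relative to control: Raclopride 1 mg/kg intravenous pretreatment versus saline controls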;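 on SRTM BPND change relative to control: Raclopride 1 mg/kg intravenous pretreatment versus saline controls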
# Assay type: in vivo, Sprague-Dawley rats
# Design: key to SRTM BPND / 1TCM BPND / 2TCM BPND (VT-based): BPND = VT(target)/VT(cerebellum) − 1 (or SRTM, cerebellum reference); SRTM BPND change relative to control / 1TCM BPND change relative to control / 2TCM BPND change relative to control / Logan BPND change relative to control: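 Raclopride 1 mg/kg intravenous pretreatment versus saline controls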; 1TCM VT / 2TCM VT: unit not given here
# Protocol: Kinetic analysis is described using the nomenclature proposed by Innis et al.. ROI TACs of [^18F]FEt-AMC13 were analyzed with one-tissue and two-tissue compartmental models of reversible binding (1TCM and 2TCM, respectively) to obtain individual rate constants. From these, the regional distribution volumes (VT) were calculated and compared to those obtained with Logan graphical analysis. Binding potentials (BPND) were calculated from the distribution ratios as VT (target) / VT (cerebellum) – 1, or estimated with the simplified reference tissue model (SRTM) using the cerebellum as reference region.
# Metabolite-corrected plasma-derived arterial input function and whole blood time-activity curve were used for Logan, 1TCM, and 2TCM analyses. Fractional cerebral blood volume was set to 3.6 % [27]. For one rat in the raclopride-treated group, no input curves could be obtained; therefore, its PET data were only analyzed with SRTM.
# Degree of D2/3R-specific binding of the tracers was characterized by BPND (as given above) or the specific binding ratio (SBR) given as target region activity/cerebellar activity - 1. Both were calculated under control conditions and in response to the raclopride challenge.
# [1] = Brainstem, raclopride, listed as [18F]FEt-AMC13
structure (smiles),measurement,setting,value
Oc1ccc2c(c1)O[C@@H](CNCc1ccc(OCC[18F])cc1)CC2 [[^18F]FEt-AMC13],fall of striatal BPND,"1 mg/kg raclopride, depending on the kinetic model",18–27%
same,1TCM BPND,"Brainstem, control",0.21±0.03
same,1TCM VT,"Brainstem, control",5.67±0.33
same,2TCM BPND (VT-based),"Brainstem, control",0.22 ± 0.02
same,2TCM VT,"Brainstem, control",6.17±0.52
same,Logan BPND,"Brainstem, control",0.21±0.02
same,Logan VT,"Brainstem, control",6.12±0.57
same,SRTM BPND,"Brainstem, control",0.18 ± 0.04
same,1TCM K1,"Brainstem, control rat A",0.63 ± 0.04 mL/g/min
same,1TCM k2,"Brainstem, control rat A",0.10 ± 0.02 min⁻¹
same,2TCM K1,"Brainstem, control rat A",2.03 ± 0.40 mL/g/min
same,2TCM k2,"Brainstem, control rat A",3.53 ± 1.32 min⁻¹
same,2TCM k3,"Brainstem, control rat A",1.05 ± 0.19 min⁻¹
same,2TCM k4,"Brainstem, control rat A",0.10 ± 0.01 min⁻¹
same,1TCM K1,"Brainstem, control rat B",0.60 ± 0.03 mL/g/min
same,1TCM k2,"Brainstem, control rat B",0.11 ± 0.01 min⁻¹
same,2TCM K1,"Brainstem, control rat B",0.96 ± 0.11 mL/g/min
same,2TCM k2,"Brainstem, control rat B",0.89 ± 0.30 min⁻¹
same,2TCM k3,"Brainstem, control rat B",0.72 ± 0.83 min⁻¹
same,2TCM k4,"Brainstem, control rat B",0.15 ± 1.20 min⁻¹
same,1TCM K1,"Brainstem, control rat C",0.68 ± 0.02 mL/g/min
same,1TCM k2,"Brainstem, control rat C",0.12 ± 0.01 min⁻¹
same,2TCM K1,"Brainstem, control rat C",1.11 ± 0.22 mL/g/min
same,2TCM k2,"Brainstem, control rat C",1.19 ± 0.59 min⁻¹
same,2TCM k3,"Brainstem, control rat C",1.10 ± 1.86 min⁻¹
same,2TCM k4,"Brainstem, control rat C",0.21 ± 2.66 min⁻¹
same,1TCM K1,"Brainstem, control rat D",0.71 ± 0.03 mL/g/min
same,1TCM k2,"Brainstem, control rat D",0.13 ± 0.01 min⁻¹
same,2TCM K1,"Brainstem, control rat D",4.75 ± 5.87 mL/g/min
same,2TCM k2,"Brainstem, control rat D",19.6 ± 19.9 min⁻¹
same,2TCM k3,"Brainstem, control rat D",2.79 ± 15.04 min⁻¹
same,2TCM k4,"Brainstem, control rat D",0.12 ± 37.81 min⁻¹
same,1TCM BPND,"Brainstem, raclopride",0.13±0.03
same,1TCM BPND change relative to control,"Brainstem, raclopride",-41%
same,1TCM VT,"Brainstem, raclopride",4.99±0.56
same,2TCM BPND (VT-based),"Brainstem, raclopride",0.10 ± 0.02
same,2TCM BPND change relative to control,"Brainstem, raclopride",−53%
same,2TCM VT,"Brainstem, raclopride",5.46±0.36
same,Logan BPND,"Brainstem, raclopride",0.11±0.02
same,Logan BPND change relative to control,"Brainstem, raclopride",-47%
same,Logan VT,"Brainstem, raclopride",5.53±0.26
same,SRTM BPND,"Brainstem, raclopride",0.07 ± 0.03
same,SRTM BPND change relative to control,"Brainstem, raclopride",−60%
same,2TCM BPND (VT-based),[1],0.10±0.02
same,2TCM BPND change relative to control,[1],-53%
same,SRTM BPND,[1],0.07±0.03
same,SRTM BPND change relative to control,[1],–60%
same,1TCM VT,"Cerebellum, control",4.68±0.34
same,2TCM VT,"Cerebellum, control",5.08±0.49
same,Logan VT,"Cerebellum, control",5.06±0.53
same,1TCM K1,"Cerebellum, control rat A",0.57 ± 0.04 mL/g/min
same,1TCM k2,"Cerebellum, control rat A",0.11 ± 0.02 min⁻¹
same,2TCM K1,"Cerebellum, control rat A",2.10 ± 0.32 mL/g/min
same,2TCM k2,"Cerebellum, control rat A",4.90 ± 1.30 min⁻¹
same,2TCM k3,"Cerebellum, control rat A",1.23 ± 0.13 min⁻¹
same,2TCM k4,"Cerebellum, control rat A",0.10 ± 0.005 min⁻¹
same,1TCM K1,"Cerebellum, control rat B",0.61 ± 0.02 mL/g/min
same,1TCM k2,"Cerebellum, control rat B",0.13 ± 0.01 min⁻¹
same,2TCM K1,"Cerebellum, control rat B",0.81 ± 0.05 mL/g/min
same,2TCM k2,"Cerebellum, control rat B",0.53 ± 0.24 min⁻¹
same,2TCM k3,"Cerebellum, control rat B",0.46 ± 0.55 min⁻¹
same,2TCM k4,"Cerebellum, control rat B",0.20 ± 0.71 min⁻¹
same,1TCM K1,"Cerebellum, control rat C",0.62 ± 0.01 mL/g/min
same,1TCM k2,"Cerebellum, control rat C",0.13 ± 0.01 min⁻¹
same,2TCM K1,"Cerebellum, control rat C",0.86 ± 0.21 mL/g/min
same,2TCM k2,"Cerebellum, control rat C",1.13 ± 1.45 min⁻¹
same,2TCM k3,"Cerebellum, control rat C",1.84 ± 1.78 min⁻¹
same,2TCM k4,"Cerebellum, control rat C",0.34 ± 0.12 min⁻¹
same,1TCM K1,"Cerebellum, control rat D",0.68 ± 0.03 mL/g/min
same,1TCM k2,"Cerebellum, control rat D",0.16 ± 0.02 min⁻¹
same,2TCM K1,"Cerebellum, control rat D",48.7 ± 819.7 mL/g/min
same,2TCM k2,"Cerebellum, control rat D",298 ± 5152 min⁻¹
same,2TCM k3,"Cerebellum, control rat D",3.55 ± 1.05 min⁻¹
same,2TCM k4,"Cerebellum, control rat D",0.13 ± 0.03 min⁻¹
same,1TCM VT,"Cerebellum, raclopride",4.43±0.40
same,2TCM VT,"Cerebellum, raclopride",4.96±0.44
same,Logan VT,"Cerebellum, raclopride",4.99±0.30
same,1TCM BPND,"Cortex, control",0.18±0.05
same,1TCM VT,"Cortex, control",5.53±0.38
same,2TCM BPND (VT-based),"Cortex, control",0.13 ± 0.04
same,2TCM VT,"Cortex, control",5.75±0.45
same,Logan BPND,"Cortex, control",0.13±0.03
same,Logan VT,"Cortex, control",5.69±0.49
same,SRTM BPND,"Cortex, control",0.11 ± 0.03
same,1TCM K1,"Cortex, control rat A",0.37 ± 0.02 mL/g/min
same,1TCM k2,"Cortex, control rat A",0.06 ± 0.01 min⁻¹
same,2TCM K1,"Cortex, control rat A",1.68 ± 0.46 mL/g/min
same,2TCM k2,"Cortex, control rat A",7.83 ± 1.43 min⁻¹
same,2TCM k3,"Cortex, control rat A",1.84 ± 0.62 min⁻¹
same,2TCM k4,"Cortex, control rat A",0.06 ± 4.47 min⁻¹
same,1TCM K1,"Cortex, control rat B",0.47 ± 0.02 mL/g/min
same,1TCM k2,"Cortex, control rat B",0.09 ± 0.01 min⁻¹
same,2TCM K1,"Cortex, control rat B",0.66 ± 0.04 mL/g/min
same,2TCM k2,"Cortex, control rat B",0.64 ± 0.21 min⁻¹
same,2TCM k3,"Cortex, control rat B",0.72 ± 0.24 min⁻¹
same,2TCM k4,"Cortex, control rat B",0.16 ± 0.02 min⁻¹
same,1TCM K1,"Cortex, control rat C",0.41 ± 0.01 mL/g/min
same,1TCM k2,"Cortex, control rat C",0.07 ± 0.002 min⁻¹
same,2TCM K1,"Cortex, control rat C",0.43 ± 0.12 mL/g/min

# Reference: publication PMC4512978, “Synthesis and evaluation in rats of homologous series of [^18F]-labeled dopamine D2/3 receptor agonists based on the 2-aminomethylchroman scaffold as potential PET tracers” (EJNMMI Research, 2015)
